Test results as given in ChEMBL document CHEMBL1201862, “PubChem BioAssay data set” (2004).
Activity calls are given as the source filed them.

Columns and labels:
[1] = inhibitors of HIV Env-driven cell fusion, dose response, cherry-pick (AID 652057); type: functional, cell-based
[2] = ZM109 Env clade C HIV-1 fusion inhibitors, dose response, HeLa effector, CEM target cells, luciferase, cherry-pick (AID 652058); type: functional, cell-based
[3] = inhibitors of clade B AD8 Env fusion, dose response, cell-based, cherry-pick (AID 652062); type: functional;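 note: luciferase signal from cell-cell fusion driven by HIV-1 clade B AD8 Env; potency is for inhibitors of fusion seen as a drop in luminescence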
[4] = cytotoxicity in HPDE-C7 cells, cell-based, fluorescence, HTS (AID 430); type: functional; settings: Homo sapiens
[5] = cytotoxicity in KRAS-transformed pancreatic duct cells, primary screen, cell-based, fluorescence, HTS (AID 431); type: functional; settings: Homo sapiens;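 note: cell line used: HPDE-C7K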
Aminopeptidase N = biological target: T1, Aminopeptidase N (Plasmodium falciparum FcB1/Columbia, UniProt O96935); assay: P. falciparum M1AAP inhibitors, biochemical, fluorogenic H-Leu-NHMec substrate, 1536-well (AID 1445); set-up: species or system Plasmodium falciparum 3D7, 3D7
T1 sequence (O96935 whole entry): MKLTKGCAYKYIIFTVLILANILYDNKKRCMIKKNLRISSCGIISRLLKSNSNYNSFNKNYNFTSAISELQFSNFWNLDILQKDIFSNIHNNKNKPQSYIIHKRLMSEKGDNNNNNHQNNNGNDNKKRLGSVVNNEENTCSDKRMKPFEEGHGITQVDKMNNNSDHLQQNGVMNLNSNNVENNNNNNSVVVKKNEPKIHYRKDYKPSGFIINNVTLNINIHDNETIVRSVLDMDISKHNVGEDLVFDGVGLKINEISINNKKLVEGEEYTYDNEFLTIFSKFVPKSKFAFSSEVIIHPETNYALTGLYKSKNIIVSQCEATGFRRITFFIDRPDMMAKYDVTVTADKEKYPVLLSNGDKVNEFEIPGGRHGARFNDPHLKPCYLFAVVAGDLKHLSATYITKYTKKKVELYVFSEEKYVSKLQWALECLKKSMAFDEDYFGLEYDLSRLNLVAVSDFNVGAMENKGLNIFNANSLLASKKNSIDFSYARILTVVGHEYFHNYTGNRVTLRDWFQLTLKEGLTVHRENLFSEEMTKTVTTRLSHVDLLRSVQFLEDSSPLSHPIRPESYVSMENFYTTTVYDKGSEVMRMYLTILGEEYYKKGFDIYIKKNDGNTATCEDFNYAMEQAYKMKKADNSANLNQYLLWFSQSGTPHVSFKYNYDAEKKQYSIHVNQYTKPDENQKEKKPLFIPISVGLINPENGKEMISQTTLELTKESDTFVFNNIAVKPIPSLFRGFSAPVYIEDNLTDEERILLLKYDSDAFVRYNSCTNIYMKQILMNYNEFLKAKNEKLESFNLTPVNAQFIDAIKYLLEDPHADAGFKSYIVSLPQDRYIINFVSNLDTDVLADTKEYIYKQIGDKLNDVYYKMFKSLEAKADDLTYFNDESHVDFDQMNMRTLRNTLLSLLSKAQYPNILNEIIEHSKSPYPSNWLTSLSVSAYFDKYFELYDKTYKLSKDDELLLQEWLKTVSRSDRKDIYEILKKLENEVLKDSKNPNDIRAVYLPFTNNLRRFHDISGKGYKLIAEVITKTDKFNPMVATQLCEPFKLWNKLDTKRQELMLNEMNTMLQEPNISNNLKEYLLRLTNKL

[6] = biological target: T2, Voltage-gated N-type calcium channel alpha-1B subunit/Amyloid beta A4 precursor protein-binding family A member 1 (Homo sapiens, UniProt Q00975+Q02410); type: protein assay
[7] = biological target: T2, Voltage-gated N-type calcium channel alpha-1B subunit/Amyloid beta A4 precursor protein-binding family A member 1; type: protein assay; remark: listed apart in the source
[8] = biological target: T3, Long-chain-fatty-acid--AMP ligase FadD28 (Mycobacterium tuberculosis, UniProt P9WQ59); assay: Fluorescence polarization aasay to screen for inhibitors that compete for the binding of FadD28 to a bisubstrate Measured in Biochemical System Using Plate Reader - 2147-01_Inhibitor_Dose_CherryPick_Activity.; type: functional, Mycobacterium tuberculosis H37Rv
T3 sequence (P9WQ59 whole entry): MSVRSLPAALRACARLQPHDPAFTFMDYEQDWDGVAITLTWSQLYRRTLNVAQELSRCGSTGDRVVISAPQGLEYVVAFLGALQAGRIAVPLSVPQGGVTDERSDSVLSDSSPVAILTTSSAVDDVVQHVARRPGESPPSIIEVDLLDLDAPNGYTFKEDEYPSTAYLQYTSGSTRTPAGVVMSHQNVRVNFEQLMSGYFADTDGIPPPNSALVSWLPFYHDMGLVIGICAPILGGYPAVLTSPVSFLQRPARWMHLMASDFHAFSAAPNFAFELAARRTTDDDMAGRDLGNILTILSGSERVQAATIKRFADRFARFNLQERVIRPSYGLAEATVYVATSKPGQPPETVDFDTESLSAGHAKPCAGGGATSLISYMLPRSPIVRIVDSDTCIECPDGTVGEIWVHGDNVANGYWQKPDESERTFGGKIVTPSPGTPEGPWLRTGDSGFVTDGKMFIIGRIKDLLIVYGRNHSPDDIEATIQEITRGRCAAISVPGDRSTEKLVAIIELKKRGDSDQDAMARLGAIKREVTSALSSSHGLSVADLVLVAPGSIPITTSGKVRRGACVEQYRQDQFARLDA

[9] = system: Streptococcus sp. 'group A'; assay: growth inhibition of control SK(-) GAS strain, dose response, counter-screen for streptokinase expression inhibitor project, luminescence, kanamycin, BacTiterGlo, confirmation (AID 1900); type: functional, organism-based
Streptococcus = assay: Group A Streptococcus viability loss, dose response, counter-screen for streptokinase expression inhibitor project, luminescence, BacTiterGlo (AID 1915); type: functional, organism-based;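 note: potency for reduction of bacterial viability or growth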
Nonstructural protein 1 = Nonstructural protein 1 (Influenza A virus, UniProt Q194T2); type: functional, Influenza A virus (A/California/07/2009(H1N1))
[10] = biological target: T4, Tyrosine-protein phosphatase non-receptor type 7 (Homo sapiens, UniProt P35236); assay: redox-dependent HePTP inhibition, mechanism study, biochemical, fluorescence (AID 2068); type: functional
T4 sequence (P35236 whole entry): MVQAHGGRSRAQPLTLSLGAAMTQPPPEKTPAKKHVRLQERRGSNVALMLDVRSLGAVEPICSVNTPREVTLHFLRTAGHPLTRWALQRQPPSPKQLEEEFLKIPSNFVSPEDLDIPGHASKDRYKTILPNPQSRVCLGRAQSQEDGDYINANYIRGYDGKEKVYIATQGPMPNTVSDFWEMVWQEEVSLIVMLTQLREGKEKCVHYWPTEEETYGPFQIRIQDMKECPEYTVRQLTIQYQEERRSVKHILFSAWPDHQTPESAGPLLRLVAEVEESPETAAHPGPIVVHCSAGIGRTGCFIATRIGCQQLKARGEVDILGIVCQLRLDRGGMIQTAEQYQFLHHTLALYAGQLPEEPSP

Leucine aminopeptidase = biological target: T5, Leucine aminopeptidase (Plasmodium falciparum 3D7, UniProt Q8IL11); assay: P. falciparum M17LAP inhibitors, primary screen, biochemical, fluorogenic H-Leu-NHMec substrate, 1536-well (AID 1619); type: functional
T5 sequence (Q8IL11 whole entry): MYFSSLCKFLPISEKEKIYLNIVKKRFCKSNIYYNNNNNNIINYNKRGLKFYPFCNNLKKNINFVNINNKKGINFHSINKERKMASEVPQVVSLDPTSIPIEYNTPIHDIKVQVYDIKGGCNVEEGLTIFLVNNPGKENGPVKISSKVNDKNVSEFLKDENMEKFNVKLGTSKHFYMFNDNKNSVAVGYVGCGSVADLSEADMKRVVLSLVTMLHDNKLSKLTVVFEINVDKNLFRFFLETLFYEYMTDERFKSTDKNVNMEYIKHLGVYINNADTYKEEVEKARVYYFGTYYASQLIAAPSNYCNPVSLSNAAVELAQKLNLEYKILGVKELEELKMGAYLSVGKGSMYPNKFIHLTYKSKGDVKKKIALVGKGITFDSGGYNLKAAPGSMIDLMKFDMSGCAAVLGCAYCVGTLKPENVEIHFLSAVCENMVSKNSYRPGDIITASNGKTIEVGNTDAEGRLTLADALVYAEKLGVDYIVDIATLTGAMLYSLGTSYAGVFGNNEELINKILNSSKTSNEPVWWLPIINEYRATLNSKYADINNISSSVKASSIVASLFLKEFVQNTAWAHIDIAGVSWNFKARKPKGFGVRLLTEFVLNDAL

[11] = cytotoxicity in HEK-293T cells, dose response, cytotoxicity control for BCR NF-kB inhibitor project, luminescence, B-cell screen hits (AID 489021); type: functional, cell-based;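 note: HEK-293T cells carrying an NF-kB luciferase reporter; cells exposed to compound for about 14 hours before viability readout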
INS1 = assay: beta cell apoptosis inhibitors, cytokine rescue, dose response, luminescence, retest (AID 449756); type: functional, cell-based; settings: Rattus norvegicus;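 note: cell death triggered by IL-1 beta plus TNF-alpha plus IFN-gamma mixture; protective hits raise ATP signal compared with cytokine alone wells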
[12] = P. falciparum Dd2 growth inhibitors, dose response, SYBR Green, cherry-picked samples (AID 1159567); type: functional, cell-based
[13] = HepG2 cell cytotoxicity, dose response, cytotoxicity control, cherry-picked samples (AID 1159577); type: functional, cell-based
[14] = NIH-3T3 fibroblast cytotoxicity, dose response, cytotoxicity control, cell-based, fluorescence, Alamar Blue, secondary assay (AID 2327); type: functional;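 note: NIH-3T3 mouse fibroblasts cultured with fluconazole at 8 µg/mL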
[15] = C. albicans growth with fluconazole, confirmation, fluorescence, retest (AID 2467); type: functional, cell-based
[16] = inhibitors of intracellular T. cruzi replication, confirmation, NIH3T3 host cells, beta-gal luminescence (AID 2044); type: functional, cell-based;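 note: intracellular parasites grown in NIH/3T3 mouse fibroblasts as host cells; luminescent beta-galactosidase reporter signal from transgenic T. cruzi replicating inside host cells; inhibitors lower the luminescence signal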
[17] = cytotoxicity toward NIH3T3 fibroblasts, dose response, counter-screen, cell-based, ATP luminescence, mouse fibroblasts (AID 2010); type: functional;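 note: cells exposed to compound for about 90 hours before reading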
[18] = cytotoxicity in HEK-293T cells, dose response, cytotoxicity control for TCR NF-kB inhibitor project, luminescence, T-cell screen hits (AID 489026); type: functional, cell-based;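 note: cells exposed to compound about 14 hours before the viability readout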

T2 sequence (Q00975 whole entry): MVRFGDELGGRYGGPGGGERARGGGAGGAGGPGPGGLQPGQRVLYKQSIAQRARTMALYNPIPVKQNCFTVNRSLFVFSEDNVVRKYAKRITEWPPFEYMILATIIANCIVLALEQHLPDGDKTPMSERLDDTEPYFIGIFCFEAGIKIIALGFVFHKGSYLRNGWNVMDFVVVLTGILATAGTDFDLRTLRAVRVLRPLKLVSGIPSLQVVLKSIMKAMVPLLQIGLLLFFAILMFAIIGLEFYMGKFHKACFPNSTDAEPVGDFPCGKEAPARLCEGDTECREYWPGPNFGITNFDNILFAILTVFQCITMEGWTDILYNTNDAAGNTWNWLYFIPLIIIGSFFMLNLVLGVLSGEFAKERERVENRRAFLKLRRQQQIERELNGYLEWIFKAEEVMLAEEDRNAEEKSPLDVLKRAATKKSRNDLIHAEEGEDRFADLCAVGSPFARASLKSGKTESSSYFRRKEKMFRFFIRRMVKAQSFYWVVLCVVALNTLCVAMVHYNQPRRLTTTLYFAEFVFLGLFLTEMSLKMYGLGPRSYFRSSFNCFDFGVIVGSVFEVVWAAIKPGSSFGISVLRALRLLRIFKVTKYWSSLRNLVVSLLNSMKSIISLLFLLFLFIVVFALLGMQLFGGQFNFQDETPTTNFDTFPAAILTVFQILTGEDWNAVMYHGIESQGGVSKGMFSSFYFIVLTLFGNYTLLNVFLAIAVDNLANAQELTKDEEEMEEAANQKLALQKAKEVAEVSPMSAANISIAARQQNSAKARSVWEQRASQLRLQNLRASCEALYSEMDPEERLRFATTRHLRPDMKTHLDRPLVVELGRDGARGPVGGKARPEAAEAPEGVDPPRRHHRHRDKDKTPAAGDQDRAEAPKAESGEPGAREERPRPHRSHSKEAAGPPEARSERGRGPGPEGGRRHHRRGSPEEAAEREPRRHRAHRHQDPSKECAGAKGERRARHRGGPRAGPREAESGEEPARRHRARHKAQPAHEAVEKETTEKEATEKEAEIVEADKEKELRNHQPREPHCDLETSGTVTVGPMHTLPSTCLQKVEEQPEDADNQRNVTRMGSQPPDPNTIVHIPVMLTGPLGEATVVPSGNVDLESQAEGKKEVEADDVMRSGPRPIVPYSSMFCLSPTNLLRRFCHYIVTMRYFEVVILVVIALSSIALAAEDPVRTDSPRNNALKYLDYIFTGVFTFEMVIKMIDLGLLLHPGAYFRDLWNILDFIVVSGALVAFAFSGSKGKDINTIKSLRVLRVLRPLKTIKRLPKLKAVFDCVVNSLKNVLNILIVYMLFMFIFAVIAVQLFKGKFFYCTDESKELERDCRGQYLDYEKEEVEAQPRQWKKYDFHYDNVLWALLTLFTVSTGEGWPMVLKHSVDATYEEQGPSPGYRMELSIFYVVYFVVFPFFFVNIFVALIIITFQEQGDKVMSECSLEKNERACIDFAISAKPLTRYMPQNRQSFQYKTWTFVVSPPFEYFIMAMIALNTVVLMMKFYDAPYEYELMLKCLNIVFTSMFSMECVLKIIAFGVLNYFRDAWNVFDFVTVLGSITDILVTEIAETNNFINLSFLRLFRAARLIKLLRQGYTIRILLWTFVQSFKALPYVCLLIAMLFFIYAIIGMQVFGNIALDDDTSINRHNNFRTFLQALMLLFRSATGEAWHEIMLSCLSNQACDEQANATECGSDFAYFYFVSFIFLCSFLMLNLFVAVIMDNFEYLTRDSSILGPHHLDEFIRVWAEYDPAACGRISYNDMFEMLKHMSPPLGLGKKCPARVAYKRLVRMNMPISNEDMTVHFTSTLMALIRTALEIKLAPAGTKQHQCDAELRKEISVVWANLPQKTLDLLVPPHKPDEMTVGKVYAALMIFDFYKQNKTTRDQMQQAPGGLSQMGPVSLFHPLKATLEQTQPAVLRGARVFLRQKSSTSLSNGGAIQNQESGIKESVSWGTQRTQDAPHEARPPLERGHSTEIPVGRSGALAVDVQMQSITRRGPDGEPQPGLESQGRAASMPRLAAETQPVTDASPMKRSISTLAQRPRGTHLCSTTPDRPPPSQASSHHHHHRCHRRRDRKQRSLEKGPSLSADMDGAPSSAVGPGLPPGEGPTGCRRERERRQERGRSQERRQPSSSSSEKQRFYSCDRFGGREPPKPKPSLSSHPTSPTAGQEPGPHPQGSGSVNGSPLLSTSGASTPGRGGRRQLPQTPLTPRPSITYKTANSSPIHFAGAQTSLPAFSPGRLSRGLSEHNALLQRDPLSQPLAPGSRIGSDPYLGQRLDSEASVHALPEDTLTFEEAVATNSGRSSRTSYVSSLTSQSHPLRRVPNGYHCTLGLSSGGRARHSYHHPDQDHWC
T2 sequence (Q02410 whole entry): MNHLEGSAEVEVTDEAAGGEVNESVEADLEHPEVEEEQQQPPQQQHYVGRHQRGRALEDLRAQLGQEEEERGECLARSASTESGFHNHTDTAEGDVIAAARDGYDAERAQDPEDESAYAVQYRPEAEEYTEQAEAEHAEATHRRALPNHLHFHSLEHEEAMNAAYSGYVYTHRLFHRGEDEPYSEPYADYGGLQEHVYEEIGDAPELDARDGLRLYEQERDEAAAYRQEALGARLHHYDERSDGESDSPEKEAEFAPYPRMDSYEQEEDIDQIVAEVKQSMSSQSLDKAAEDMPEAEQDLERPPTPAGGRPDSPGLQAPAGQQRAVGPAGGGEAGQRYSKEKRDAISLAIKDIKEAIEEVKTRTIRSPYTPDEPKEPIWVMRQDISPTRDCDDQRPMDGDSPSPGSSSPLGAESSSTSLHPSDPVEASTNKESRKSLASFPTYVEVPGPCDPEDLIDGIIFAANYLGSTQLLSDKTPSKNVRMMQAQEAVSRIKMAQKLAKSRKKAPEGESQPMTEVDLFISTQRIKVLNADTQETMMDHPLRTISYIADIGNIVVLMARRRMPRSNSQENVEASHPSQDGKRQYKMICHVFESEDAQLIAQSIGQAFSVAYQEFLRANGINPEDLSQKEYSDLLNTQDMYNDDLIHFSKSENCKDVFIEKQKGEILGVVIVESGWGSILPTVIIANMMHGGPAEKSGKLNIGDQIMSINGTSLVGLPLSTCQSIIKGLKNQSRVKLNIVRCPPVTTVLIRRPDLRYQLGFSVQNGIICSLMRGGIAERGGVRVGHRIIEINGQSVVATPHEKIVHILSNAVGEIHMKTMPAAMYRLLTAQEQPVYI
Nonstructural protein 1, sequence (Q194T2 whole entry): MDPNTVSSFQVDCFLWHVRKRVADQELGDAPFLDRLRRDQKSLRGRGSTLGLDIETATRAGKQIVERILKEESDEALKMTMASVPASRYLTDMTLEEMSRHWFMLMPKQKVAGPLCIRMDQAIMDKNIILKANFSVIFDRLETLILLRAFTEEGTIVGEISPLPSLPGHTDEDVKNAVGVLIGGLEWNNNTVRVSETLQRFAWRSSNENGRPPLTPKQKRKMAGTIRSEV

## COc1cccc(S(=O)(=O)N2CCC3(CC2)CN(C(=O)Nc2cccc(F)c2)[C@@H](CO)c2[nH]c4cc(OC)ccc4c23)c1
[1]
  AC50: 6.21 µM (active)
[2]
  AC50: 6.68 µM (active)
[3]
  AC50: 8.03 µM (active)

## CN(C)/C=C/C(=O)c1nnn(C2CCCCC2)c1NC1CCCCC1
[4]
  EC50: > 20 µM (not active)
[5]
  EC50: > 20 µM (not active)

## O=C(Nc1ccc(-n2ccnc2P(=O)(O)c2ccccc2)cc1)c1ccccc1Br
Aminopeptidase N
  IC50: 11.2 µM (active)

## COC(=O)c1cc(NC(=O)c2ccccc2)c(=O)oc1/C=C/Nc1ccc(Oc2ccccc2)cc1
[6]
  IC50: 6.82 µM (active)
[7]
  IC50: > 50 µM (inactive)
[8]
  AC50: 60.3 µM (active)

## Cc1cccnc1NCc1ccc(O)c2ncccc12
[9]
  EC50: 2.9 µM (active)
[4]
  EC50: 13.6 µM (active)
[5]
  EC50: 10 µM (active)
Streptococcus
  EC50: 3.33 µM (active)
Nonstructural protein 1
  IC50: 14.1 µM (active)

## O=C(Nc1ccc2nc(-c3ccco3)c(-c3ccco3)nc2c1)N1CCSCC1
[10]
  IC50: 3.36 µM (active)

## COc1ccc(NC(=O)Cc2c(F)cccc2Cl)cc1
Leucine aminopeptidase
  IC50: 13.6 µM (active)

## Cc1cc(=O)oc2c(CN3CCCCC3)c(O)c(Cl)cc12
Aminopeptidase N
  IC50: 59.6 µM (active)

## O=C1c2n[nH]c(-c3ccccc3O)c2C(c2ccccc2F)N1Cc1ccco1 (stereo not drawn)
[4]
  EC50: 13.1 µM (active)
[5]
  EC50: 15 µM (active)

## O=C(NNC(=O)c1ccccc1O)c1ccc(Cl)c(S(=O)(=O)N2CCc3ccccc32)c1
[11]
  IC50: 77.9 µM (inactive)
INS1
  AC50: 4.28 µM (active)

## C[C@@H]1CN([C@H](C)CO)C(=O)c2c(c3ccccc3n2C)-c2ccccc2CO[C@@H]1CN(C)Cc1cccc(O)c1
[12]
  AC50: 4.04 µM (active)
[13]
  AC50: 17.2 µM (active)

## N#C[C@H]1[C@H](c2ccc(C#CC3CCCCC3)cc2)[C@@H](CO)N1C(=O)Nc1ccc(F)cc1
[12]
  AC50: 4.35 µM (active)
[13]
  AC50: 9.27 µM (active)

## COc1ccc(C(=O)N/N=C/c2ccc(OC)c(CN3CCCc4ccccc43)c2)cc1
[11]
  IC50: > 80 µM (inactive)

## N#C[C@H]1[C@H](c2ccc(C#Cc3ccccc3F)cc2)[C@@H](CO)N1C(=O)C1CCCC1
[12]
  AC50: 4.27 µM (active)
[13]
  AC50: > 39 µM (inactive)

## CCCCCCCn1c2c(c(=N)c3ccccc31)CCC2
[14]
  EC50: > 160 µM (inactive)
[15]
  EC50: 4.4 µM (active)
[16]
  EC50: < 0.1 µM (active)
[17]
  EC50: 25.2 µM (active)
[18]
  IC50: 72.2 µM (inactive)
cells
  EC50: < 0.004 µM (active)

## Cc1c(N2C(=O)C(O)=C(C(=O)c3ccc(Cl)cc3)C2c2ccccc2)c(=O)n(-c2ccccc2)n1C (stereo not drawn)
Aminopeptidase N
  IC50: 62.1 µM (active)

## O=C(CSc1ccccc1C(=O)O)NCc1ccc(Cl)cc1
Leucine aminopeptidase
  IC50: 17.4 µM (active)

## CCCCCCCCc1nnc(SC(C)C(=O)O)[nH]1 (stereo not drawn)
Leucine aminopeptidase
  IC50: 5.32 µM (active)

## O=C(CCN1C(=O)/C(=C/c2ccc(Cl)cc2)SC1=S)NC1C=CS(=O)(=O)C1 (stereo not drawn)
[6]
  IC50: 8.45 µM (active)
[7]
  IC50: > 50 µM (inactive)

## CCOC(=O)c1nnn2c1nc(Nc1cccc(C(F)(F)F)c1)c1ccccc12
[6]
  IC50: 25.1 µM (active)
[7]
  IC50: > 50 µM (inactive)

## COc1ccc(-c2[nH]ncc2/C=C(\C#N)C(=O)NC2CC2)cc1
Leucine aminopeptidase
  IC50: 36.9 µM (active)

## Cc1c(C)c2cc(Cl)c(O)c(CN3CCCC(C)C3)c2oc1=O (stereo not drawn)
Aminopeptidase N
  IC50: 43.1 µM (active)
